Experimental data: patent US20140128599A1, “BENZOXAZOLE KINASE INHIBITORS AND METHODS OF USE” (Intellikine LLC La Jolla, priority 2008, published 2014)
pIC50: −log10 of the molar value.

Tests used:
Assay type in all cases: biochemical
mTOR = molecular target: T1, mTOR (Homo sapiens, UniProt P42345); assay: mTOR kinase inhibition assay
T1 construct: purchased Invitrogen
Description: The compounds described herein can be tested against recombinant mTOR (Invitrogen) in an assay containing 50 mM HEPES, pH 7.5, 1 mM EGTA, 10 mM MgCl2, 2.5 mM, 0.01% Tween, 10 μM ATP (2.5 μCi of μ-32P-ATP), and 3 μg/mL BSA. Rat recombinant PHAS-1/4EBP1 (Calbiochem; 2 mg/mL) is used as a substrate. Reactions are terminated by spotting onto nitrocellulose, which is washed with 1M NaCl/1% phosphoric acid (approximately 6 times, 5-10 minutes each). Sheets are dried and the transferred radioactivity quantitated by phosphorimaging.
This assay is a time resolved FRET platform that measures the phosphorylation of GFP labeled 4EBP1 by mTOR kinase. The kinase reaction is performed in a white 384 well microtitre plate. The total reaction volume is 20 ul per well and the reaction buffer composition is 50 mM HEPES pH7.5, 0.01% Polysorbate 20, 1 mM EGTA, 10 mM MnCl2, and 2 mM DTT. In the first step, each well receives 2 ul of test compound in 20% dimethylsulphoxide resulting in a 2% DMSO final concentration. Next, 8 ul of mTOR diluted in reaction buffer is added per well for a 60 ng/ml final concentration. To start the reaction, 10 ul of an ATP/GFP-4EBP1 mixture (diluted in reaction buffer) is added per well for a final concentration of 10 uM ATP and 0.5 uM GFP-4EBP1. The plate is sealed and incubated for 1 hour at room temperature. […] The plate is sealed, incubated for 1 hour at room temperature, and then read on a plate reader set up for LanthaScreen™ TR-FRET. Data is analyzed and IC50s are generated using GraphPad Prism 5.

PI3K β = molecular target: T2, PI3K β (Homo sapiens, UniProt P42338); assay: PI3K kinase inhibition assay (p110β/p85α)
T2 construct: purchased Upstate
T2 sequence (P42338 whole entry): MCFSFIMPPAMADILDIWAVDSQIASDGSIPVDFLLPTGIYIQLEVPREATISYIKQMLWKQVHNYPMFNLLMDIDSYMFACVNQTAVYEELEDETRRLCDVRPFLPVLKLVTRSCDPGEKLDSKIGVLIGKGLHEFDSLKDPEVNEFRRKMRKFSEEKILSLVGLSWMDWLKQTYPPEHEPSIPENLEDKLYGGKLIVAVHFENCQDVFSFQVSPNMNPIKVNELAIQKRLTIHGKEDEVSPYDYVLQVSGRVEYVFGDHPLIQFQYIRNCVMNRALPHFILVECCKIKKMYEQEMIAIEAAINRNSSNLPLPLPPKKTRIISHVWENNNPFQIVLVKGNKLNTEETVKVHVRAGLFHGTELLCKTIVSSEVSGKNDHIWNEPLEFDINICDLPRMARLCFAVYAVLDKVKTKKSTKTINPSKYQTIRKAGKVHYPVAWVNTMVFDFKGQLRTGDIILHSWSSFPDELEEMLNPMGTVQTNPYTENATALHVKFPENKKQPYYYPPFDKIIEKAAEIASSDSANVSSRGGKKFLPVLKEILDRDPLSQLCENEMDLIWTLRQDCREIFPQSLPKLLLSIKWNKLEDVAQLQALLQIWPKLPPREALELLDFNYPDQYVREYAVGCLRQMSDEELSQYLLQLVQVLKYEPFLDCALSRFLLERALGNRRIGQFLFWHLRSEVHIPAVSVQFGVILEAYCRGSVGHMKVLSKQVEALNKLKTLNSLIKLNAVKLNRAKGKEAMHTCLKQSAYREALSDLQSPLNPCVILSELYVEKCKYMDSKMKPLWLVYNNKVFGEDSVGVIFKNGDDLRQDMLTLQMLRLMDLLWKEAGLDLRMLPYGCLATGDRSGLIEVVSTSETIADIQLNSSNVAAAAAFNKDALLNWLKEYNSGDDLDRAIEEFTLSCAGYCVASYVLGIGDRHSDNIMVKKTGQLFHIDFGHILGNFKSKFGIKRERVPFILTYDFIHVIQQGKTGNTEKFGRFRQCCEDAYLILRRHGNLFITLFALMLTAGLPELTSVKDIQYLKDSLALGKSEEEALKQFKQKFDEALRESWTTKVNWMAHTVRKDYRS
T2 sequence (P27986 whole entry partner): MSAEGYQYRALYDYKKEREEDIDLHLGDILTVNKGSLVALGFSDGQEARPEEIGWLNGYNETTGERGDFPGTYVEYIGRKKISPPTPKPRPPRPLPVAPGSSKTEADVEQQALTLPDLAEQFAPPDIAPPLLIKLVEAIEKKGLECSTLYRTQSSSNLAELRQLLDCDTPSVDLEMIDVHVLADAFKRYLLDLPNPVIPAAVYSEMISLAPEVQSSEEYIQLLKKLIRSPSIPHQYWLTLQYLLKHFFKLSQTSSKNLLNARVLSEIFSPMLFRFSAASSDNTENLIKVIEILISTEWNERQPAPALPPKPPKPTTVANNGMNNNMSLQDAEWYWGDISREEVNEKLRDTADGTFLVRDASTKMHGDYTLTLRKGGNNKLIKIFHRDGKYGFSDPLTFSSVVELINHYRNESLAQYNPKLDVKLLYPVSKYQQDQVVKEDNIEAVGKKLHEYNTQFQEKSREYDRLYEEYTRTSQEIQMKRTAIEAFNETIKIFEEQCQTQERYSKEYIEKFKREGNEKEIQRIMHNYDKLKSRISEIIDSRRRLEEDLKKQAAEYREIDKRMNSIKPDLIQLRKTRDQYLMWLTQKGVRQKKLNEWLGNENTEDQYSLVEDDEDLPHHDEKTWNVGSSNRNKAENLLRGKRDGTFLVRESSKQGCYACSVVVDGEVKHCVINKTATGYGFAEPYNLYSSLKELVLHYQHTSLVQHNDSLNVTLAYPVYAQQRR

PI3K α = molecular target: T3, PI3K α (Homo sapiens, UniProt P42336); assay: PI3K kinase inhibition assay (p110α/p85α)
T3 construct: purchased Upstate
T3 sequence (P42336 whole entry): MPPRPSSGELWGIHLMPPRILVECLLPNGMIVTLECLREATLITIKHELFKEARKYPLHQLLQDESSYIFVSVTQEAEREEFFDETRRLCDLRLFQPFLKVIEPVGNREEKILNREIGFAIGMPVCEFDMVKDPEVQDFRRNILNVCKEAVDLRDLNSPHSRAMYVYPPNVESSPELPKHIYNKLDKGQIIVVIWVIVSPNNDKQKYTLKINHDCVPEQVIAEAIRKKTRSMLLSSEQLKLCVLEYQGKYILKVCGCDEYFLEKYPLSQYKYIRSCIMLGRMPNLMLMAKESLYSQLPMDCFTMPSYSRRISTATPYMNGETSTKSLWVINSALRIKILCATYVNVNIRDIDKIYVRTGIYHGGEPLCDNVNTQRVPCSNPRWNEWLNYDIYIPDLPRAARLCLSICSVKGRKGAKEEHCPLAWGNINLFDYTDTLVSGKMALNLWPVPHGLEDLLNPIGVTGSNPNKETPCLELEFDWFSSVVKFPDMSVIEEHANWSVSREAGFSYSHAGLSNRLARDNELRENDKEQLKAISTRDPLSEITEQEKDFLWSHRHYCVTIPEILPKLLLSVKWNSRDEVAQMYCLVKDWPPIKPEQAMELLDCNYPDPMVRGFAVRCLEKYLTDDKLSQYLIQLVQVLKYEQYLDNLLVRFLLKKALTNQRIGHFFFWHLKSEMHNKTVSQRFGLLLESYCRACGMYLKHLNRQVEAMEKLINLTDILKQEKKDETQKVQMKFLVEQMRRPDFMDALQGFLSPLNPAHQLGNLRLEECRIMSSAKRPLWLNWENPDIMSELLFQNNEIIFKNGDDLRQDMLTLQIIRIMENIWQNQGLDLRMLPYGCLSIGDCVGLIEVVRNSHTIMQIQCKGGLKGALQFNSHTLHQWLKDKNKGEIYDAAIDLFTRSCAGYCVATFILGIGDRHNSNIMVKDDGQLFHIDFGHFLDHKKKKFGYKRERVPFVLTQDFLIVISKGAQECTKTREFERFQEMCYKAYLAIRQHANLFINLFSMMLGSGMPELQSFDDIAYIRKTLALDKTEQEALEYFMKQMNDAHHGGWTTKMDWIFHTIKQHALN
T3 sequence (P27986 whole entry partner): as the sequence (P27986 whole entry partner) above

PI3K γ = molecular target: T4, PI3K γ (Homo sapiens, UniProt P48736); assay: PI3K kinase inhibition assay (p110γ)
T4 construct: purchased Sigma
T4 sequence (P48736 whole entry): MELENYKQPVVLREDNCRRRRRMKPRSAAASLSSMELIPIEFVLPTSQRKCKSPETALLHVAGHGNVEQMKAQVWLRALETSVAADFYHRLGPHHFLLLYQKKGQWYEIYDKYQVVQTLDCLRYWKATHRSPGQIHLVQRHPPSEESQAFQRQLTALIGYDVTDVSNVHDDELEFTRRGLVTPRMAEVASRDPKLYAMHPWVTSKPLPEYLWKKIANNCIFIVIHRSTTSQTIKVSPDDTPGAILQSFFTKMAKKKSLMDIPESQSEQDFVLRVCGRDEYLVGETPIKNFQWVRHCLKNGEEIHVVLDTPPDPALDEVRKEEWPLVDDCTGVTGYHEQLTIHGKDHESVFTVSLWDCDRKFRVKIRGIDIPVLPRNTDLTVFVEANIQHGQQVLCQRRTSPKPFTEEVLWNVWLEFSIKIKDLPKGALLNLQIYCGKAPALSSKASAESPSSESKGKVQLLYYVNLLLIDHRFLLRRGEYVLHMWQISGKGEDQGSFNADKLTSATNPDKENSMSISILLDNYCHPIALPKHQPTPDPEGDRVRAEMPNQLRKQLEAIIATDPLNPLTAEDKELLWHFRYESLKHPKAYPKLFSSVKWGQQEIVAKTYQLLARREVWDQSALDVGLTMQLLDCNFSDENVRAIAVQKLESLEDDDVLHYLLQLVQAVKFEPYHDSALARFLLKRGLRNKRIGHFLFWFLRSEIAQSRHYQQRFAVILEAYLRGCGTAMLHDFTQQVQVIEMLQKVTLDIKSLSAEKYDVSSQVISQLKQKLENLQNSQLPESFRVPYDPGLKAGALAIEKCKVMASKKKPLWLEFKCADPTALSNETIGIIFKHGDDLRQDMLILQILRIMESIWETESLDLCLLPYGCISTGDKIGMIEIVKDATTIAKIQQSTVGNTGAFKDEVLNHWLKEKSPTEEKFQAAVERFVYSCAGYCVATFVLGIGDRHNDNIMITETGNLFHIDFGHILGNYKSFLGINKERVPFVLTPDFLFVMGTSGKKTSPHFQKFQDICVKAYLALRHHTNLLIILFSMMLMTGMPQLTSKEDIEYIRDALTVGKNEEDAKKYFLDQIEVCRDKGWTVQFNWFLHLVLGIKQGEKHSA
Description: IC50 values are measured using either a standard TLC assay for lipid kinase activity (described below) or a high-throughput membrane capture assay. Kinase reactions are performed by preparing a reaction mixture containing kinase, inhibitor (2% DMSO final concentration), buffer (25 mM HEPES, pH 7.4, 10 mM MgCl2), and freshly sonicated phosphatidylinositol (100 μg/ml). Reactions are initiated by the addition of ATP containing 10 μCi of γ-32P-ATP to a final concentration 10 or 100 μM and allowed to proceed for 5 minutes at room temperature. For TLC analysis, reactions are then terminated by the addition of 105 μl 1N HCl followed by 160 μl CHCl3:MeOH (1:1). The biphasic mixture is vortexed, briefly centrifuged, and the organic phase is transferred to a new tube using a gel loading pipette tip precoated with CHCl3. […] The TLC plates are then dried, exposed to a phosphorimager screen (Storm, Amersham), and quantitated.
Briefly, the assay is a time resolved FRET assay that indirectly measures PIP3 product formed by the activity of a PI3-K. The kinase reaction is performed in a microtitre plate (e.g., a 384 well microtitre plate). The total reaction volume is approximately 20 ul per well. In the first step, each well receives 2 ul of test compound in 20% dimethylsulphoxide resulting in a 2% DMSO final concentration. Next, approximately 14.5 ul of a kinase/PIP2 mixture (diluted in 1× reaction buffer) is added per well for a final concentration of 0.25-0.3 ug/ml kinase and 10 uM PIP2. The plate is sealed and incubated for 15 minutes at room temperature. To start the reaction, 3.5 ul of ATP (diluted in 1× reaction buffer) is added per well for a final concentration of 10 uM ATP. The plate is sealed and incubated for 1 hour at room temperature. The reaction is stopped by adding 5 ul of Stop Solution per well and then 5 ul of Detection Mix is added per well. The plate is sealed, incubated for 1 hour at room temperature, and then read on an appropriate plate reader. Data is analyzed and IC50s are generated using GraphPad Prism 5.

PI3K δ = molecular target: T5, PI3K δ (Homo sapiens, UniProt O00329); assay: PI3K kinase inhibition assay (p110δ/p85α)
T5 construct: purchased Upstate
T5 sequence (O00329 whole entry): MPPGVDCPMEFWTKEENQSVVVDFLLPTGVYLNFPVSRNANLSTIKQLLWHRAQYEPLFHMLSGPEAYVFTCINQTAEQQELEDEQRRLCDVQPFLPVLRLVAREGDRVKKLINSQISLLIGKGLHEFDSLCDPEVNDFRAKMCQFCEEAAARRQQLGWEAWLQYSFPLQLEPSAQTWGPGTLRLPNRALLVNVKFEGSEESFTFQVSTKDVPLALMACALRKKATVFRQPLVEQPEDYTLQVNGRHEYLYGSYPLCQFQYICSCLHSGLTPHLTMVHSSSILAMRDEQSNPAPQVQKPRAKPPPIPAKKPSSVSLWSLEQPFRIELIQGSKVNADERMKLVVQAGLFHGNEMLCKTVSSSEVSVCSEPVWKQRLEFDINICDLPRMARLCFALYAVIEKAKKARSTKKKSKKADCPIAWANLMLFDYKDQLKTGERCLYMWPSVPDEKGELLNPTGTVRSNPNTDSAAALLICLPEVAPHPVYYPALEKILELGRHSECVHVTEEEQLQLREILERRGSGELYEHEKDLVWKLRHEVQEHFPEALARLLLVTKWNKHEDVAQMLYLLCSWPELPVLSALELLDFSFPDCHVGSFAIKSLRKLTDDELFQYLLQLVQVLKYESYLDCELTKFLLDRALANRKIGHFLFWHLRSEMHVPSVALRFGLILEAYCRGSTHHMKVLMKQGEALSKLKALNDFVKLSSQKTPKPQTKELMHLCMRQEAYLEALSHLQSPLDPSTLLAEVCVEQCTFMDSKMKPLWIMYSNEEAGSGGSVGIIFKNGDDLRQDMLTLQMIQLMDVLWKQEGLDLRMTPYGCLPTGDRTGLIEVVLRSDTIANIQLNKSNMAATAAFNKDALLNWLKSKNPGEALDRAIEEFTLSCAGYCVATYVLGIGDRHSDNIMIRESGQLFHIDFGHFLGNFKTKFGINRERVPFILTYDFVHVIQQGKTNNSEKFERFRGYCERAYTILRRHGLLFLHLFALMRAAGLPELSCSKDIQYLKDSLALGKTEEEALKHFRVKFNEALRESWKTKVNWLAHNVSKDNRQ
T5 sequence (P27986 whole entry partner): as the sequence (P27986 whole entry partner) above

For `CC(=O)Nc1nc2cc(-c3nn(C(C)C)c4ncnc(N)c34)ccc2o1` [compound 2], the pIC50 (mTOR) was over 7.00, the pIC50 (PI3K β) was under 5.00 and the pIC50 (PI3K α) was over 5.00. The pIC50 (PI3K γ) was over 6.00 and the pIC50 (PI3K δ) was over 6.00.

In the case of `CC(=O)Nc1nc2ccc(-c3nn(C(C)C)c4ncnc(N)c34)cc2o1` [compound 3], the pIC50 (PI3K α) was under 5.00.

`CC(C)n1nc(-c2ccc3nc(N)oc3c2)c2c(N)ncnc21` [compound 4] gave a pIC50 (mTOR) of over 6.00, a pIC50 (PI3K β) of over 5.00 and a pIC50 (PI3K α) of over 5.00. The pIC50 (PI3K γ) was over 6.00 and the pIC50 (PI3K δ) was over 6.00.

With `Nc1nc2cc(-c3nn(C4CCOCC4)c4ncnc(N)c34)ccc2o1` [compound 5] the pIC50 (mTOR) was over 7.00, the pIC50 (PI3K β) was over 5.00 and the pIC50 (PI3K α) was over 6.00. For the same molecule, the pIC50 (PI3K γ) was over 7.00 and the pIC50 (PI3K δ) was over 6.00.

For `Nc1nc2cc(-c3nn(C4CCC(N5CCOCC5)CC4)c4ncnc(N)c34)ccc2o1` (stereo not drawn) [compound 6], the pIC50 (PI3K β) was under 5.00 and the pIC50 (PI3K δ) was over 6.00.

`CC(=O)N1CCC(n2nc(-c3ccc4oc(N)nc4c3)c3c(N)ncnc32)CC1` [compound 7] was tested, and the pIC50 (PI3K β) was over 5.00, the pIC50 (PI3K α) was over 6.00 and the pIC50 (PI3K γ) was over 5.00. For the same molecule, the pIC50 (PI3K δ) was over 6.00.

With `CC(C)n1cc(-c2ccc3oc(N)nc3c2)c2c(N)ncnc21` [compound 8] the pIC50 (mTOR) was over 7.00, the pIC50 (PI3K β) was under 5.00 and the pIC50 (PI3K α) was over 6.00. For the same molecule, the pIC50 (PI3K γ) was over 6.00 and the pIC50 (PI3K δ) was over 6.00.

`Nc1nc2cc(-c3cn(C4CCOCC4)c4ncnc(N)c34)ccc2o1` [compound 9] showed a pIC50 (PI3K β) of under 5.00 and a pIC50 (PI3K α) of over 5.00.

For `CC(C)n1nc(-c2ccc3onc(N)c3c2)c2c(N)ncnc21` [compound 10], the pIC50 (mTOR) was over 5.00.

With `CC(=O)Nc1noc2cc(-c3nn(C(C)C)c4ncnc(N)c34)ccc12` [compound 11] the pIC50 (mTOR) was over 6.00.

For `CC(C)n1nc(-c2ccc3c(N)noc3c2)c2c(N)ncnc21` [compound 12], the pIC50 (mTOR) was over 6.00.

`CNc1noc2cc(-c3nn(C(C)C)c4ncnc(N)c34)ccc12` [compound 13] showed a pIC50 (mTOR) of over 5.00, a pIC50 (PI3K α) of over 5.00 and a pIC50 (PI3K γ) of over 6.00. It also gave a pIC50 (PI3K δ) of over 6.00.

Work on `CC(C)n1nc(-c2ccc3c(NC4CC4)noc3c2)c2c(N)ncnc21` [compound 14] yielded a pIC50 (mTOR) of over 5.00, a pIC50 (PI3K α) of over 5.00 and a pIC50 (PI3K δ) of over 5.00.

`CC(C)n1nc(-c2ccc3onc(NC4CC4)c3c2)c2c(N)ncnc21` [compound 16] gave a pIC50 (mTOR) of under 5.00, a pIC50 (PI3K α) of under 5.00 and a pIC50 (PI3K δ) of under 5.00.

`Nc1noc2ccc(-c3nn(CC(=O)N4CCOCC4)c4ncnc(N)c34)cc12` [compound 17] gave a pIC50 (mTOR) of under 5.00, a pIC50 (PI3K α) of under 5.00 and a pIC50 (PI3K γ) of under 5.00. The pIC50 (PI3K δ) was under 5.00.

For `COC(=O)Nc1noc2ccc(-c3nn(C(C)C)c4ncnc(N)c34)cc12` [compound 19], the pIC50 (mTOR) was over 5.00, the pIC50 (PI3K β) was under 5.00 and the pIC50 (PI3K δ) was under 5.00.

In the case of `COC(=O)Nc1noc2cc(-c3nn(C(C)C)c4ncnc(N)c34)ccc12` [compound 20], the pIC50 (mTOR) was over 5.00, the pIC50 (PI3K β) was under 5.00 and the pIC50 (PI3K δ) was over 5.00.

In the case of `Cc1nc(N)c2c(-c3ccc4oc(N)nc4c3)nn(C(C)C)c2n1` [compound 21], the pIC50 (mTOR) was over 6.00, the pIC50 (PI3K β) was under 5.00 and the pIC50 (PI3K α) was under 5.00. It also gave a pIC50 (PI3K γ) of under 5.00 and a pIC50 (PI3K δ) of under 5.00.

For `CC(CO)n1nc(-c2ccc3oc(N)nc3c2)c2c(N)ncnc21` (stereo not drawn) [compound 23], the pIC50 (mTOR) was over 7.00, the pIC50 (PI3K β) was under 5.00 and the pIC50 (PI3K α) was over 5.00. The pIC50 (PI3K γ) was over 5.00 and the pIC50 (PI3K δ) was over 5.00.

In the case of `Nc1nc2cc(-c3nn(C4CC(=O)C4)c4ncnc(N)c34)ccc2o1` [compound 25], the pIC50 (PI3K β) was over 5.00, the pIC50 (PI3K α) was over 6.00 and the pIC50 (PI3K γ) was over 7.00. The pIC50 (PI3K δ) was over 6.00.

In the case of `Nc1nc2cc(-c3nn(C4CC(O)C4)c4ncnc(N)c34)ccc2o1` (stereo not drawn) [compound 26], the pIC50 (PI3K α) was over 7.00 and the pIC50 (PI3K γ) was over 7.00.

`CC(C)(CO)n1nc(-c2ccc3oc(N)nc3c2)c2c(N)ncnc21` [compound 27] gave a pIC50 (PI3K β) of under 5.00, a pIC50 (PI3K α) of over 5.00 and a pIC50 (PI3K γ) of under 5.00. It also gave a pIC50 (PI3K δ) of over 6.00.
